Data set [1] concerns red blood cells. In words: Hemolytic activity of PEB-biguanidium salts. In kind it is cell-based. The settings on record: red blood cells 2% v/v in PBS, 1 h at 37 °C. Here is the method: The toxicity of PEB-Biguanidiums salts was estimated through their hemolytic activity by incubating red blood cells (RBC) with the compounds for 1 h (See Supplementary Table S13 and Supplementary Fig. S29).
Experimental. Red blood cells in Alsever’s solution were centrifuged for 10 min at 300g, washed 3 times with PBS buffer, and resuspended in PBS at 2% v/v. To each well of a 96-well plate, 195 µL of red blood cell solution and 5 µL of biguanidium salt in DMSO were added, and the plate was incubated with light agitation for 1 h at 37 °C. The plate was then centrifuged for 10 min at 300g, and 50 µL of the supernatant solution of each well was transferred to another plate. Absorbance was measured at λ = 405 nm. Each measurement was performed in triplicate in three different experiments.

In another data set the test system is KP4 cells. In words: Growth assay (crystal violet), KP4 cells. The note with it: KP4 cells, 3 days treatment, crystal violet retention assay, read-out: IC50 KP4. In kind it is cell-based, human. The protocol: (§1) All chemicals were purchased from Aldrich Chemicals in their highest purity and used without further purification. Deuterated dimethylsulfoxide (DMSO-d^6) and deuterated chloroform (CDCl3) were purchased from CDN Isotopes. NMR spectra were recorded on Bruker advance 400 and 100 spectrometers. Coupling constants are given in hertz (Hz) and chemical shifts are given in parts per million (ppm, δ) measured relative to the residual solvent (the multiplicity of the signals are given as s: singlet, d: doublet, t: triplet, and m: multiplet). High-resolution mass spectra (HRMS) were recorded on a TSQ Quantum Ultra (Thermo Scientific) triple quadrupole with accurate mass option instrument (Université de Montréal Mass Spectrometry Facility). MS experiences were performed using an UltrafleXtreme MALDI TOF/TOF mass spectrometer equipped with a SmartBeam II Nd:Yag/355 nm laser operating at 1 kHz and providing a laser focus down to 20 μm in diameter (Bruker Daltonics, Billerica, MA). The data acquisition for MS was performed in positive ion mode using the linear geometry with flexControl 3.4 (Bruker Daltonics, Billerica, MA). Acceleration voltage was set to + 25 kV and all other instrumental parameters (delayed extraction parameters, source voltages, detector gain, laser energy, etc.) were optimized for maximum S/N for the drug compounds. L-α-Phosphatidylcholine was purchased from Avanti Polar Lipids. Transport and depolarization studies as well as absorbance measurements were performed on a Varian Cary Eclipse fluorescence spectrophotometer. The hemolysis assays were performed on a Fluostar Optima plate reader. Single crystals of C18H18F3N5O3S were obtained from chloroform. A suitable crystal was selected and analysed on a Bruker Venture Metaljet diffractometer. Crystal violet retention assay was used for cell growth assays and IC50 were determined using Prism (GraphPad). NAD/NADH quantitation colorimetric kit (#K337-100) from Biovision was used according to manufacturer’s instructions. ECAR (extracellular acidification rate) and OCR of KP4 cells (oxygen consumption rate) were measured on a Seahorse XF-24 (Agilent).
(§2) Experimental. KP4 (Riken RCB1005) and PSN1 (ATCC: CRM-CRL-3211), were cultured in Dulbecco's modified Eagle's medium (DMEM) (Wisent, St-Bruno, QC) supplemented with 10 % of fetal bovine serum (FBS) (Wisent). HPNE hTERT (ATCC: CRL1423) were cultured in a mix of 75% DMEM without glucose (Sigma Cat#. D-5030) with additional 2 mM L-glutamine and 1.5 g/L sodium bicarbonate, 25% Medium M3 Base (Incell Corp. Cat# M300F- 500), fetal bovine serum 5% (wisent 10 ng/ml human recombinant EGF (Sigma-Aldrich), 5.5 mM D-glucose (Sigma-Aldrich), 750 ng/ml puromycin (Sigma-Aldrich). For dose-response assays, cells were seeded in 96 well plates (company). After 24 h, treatments were applied and cells were grown for 3 more days. Crystal violet retention assay used for cell growth assays were described previously^2. The data is expressed as relative absorbance of crystal violet extracted from the cells and diluted in 10 % acetic acid. IC50 were determined using Prism (GraphPad). Tumor spheres were grew according to Ferbeyre et al^3.

Data set [2] has as its system HPNE cells (normal immortalized pancreatic epithelial cells). In words: Growth assay (crystal violet), HPNE cells. Type of data set: cell-based, human. The note with it: 3 days treatment, crystal violet retention assay. Here is the method: . The IC50 of most of the synthetic biguanides in HPNE cells was higher than for cancer cells (Supplementary Table S12).
as §1, §2

In data set [3] the test system is red blood cells. Further details: method as in PMID 23143143, doi:10.1039/C3md00293d. The note with it: cited from earlier work.

We go through 13 compounds from publication PMC8110578, “Phenylethynylbenzyl-modified biguanides inhibit pancreatic cancer tumor growth” (Scientific Reports, 2021).

The structures appear in SMILES notation. Where two headings read alike, the source gives them in different places. Some results are limits rather than exact numbers.

Broadly, the IC50 is the concentration needed to halve the response being measured.

On to `N=C(N)NC(=N)NCc1ccc(C#Cc2ccccc2)cc1` [1c, 4-(phenylethynyl)benzylbiguanide], for which, in the data set with red blood cells [1], the “HC 10% (µM)” value is greater than 305 µM and the “HC 10% (µg/ml)” value is greater than 100 µg/mL. The IC50 in the data set with KP4 cells stood at 9.21 µM. The same compound gave a half-maximal inhibitory concentration (IC50) in data set [2] of 28.1 µM.
As for `N=C(N)NC(=N)NCc1ccc(CCc2ccccc2)cc1` [2a, 4-(phenylethyl)benzylbiguanide], in the data set with red blood cells [1], the “HC 10% (µM)” value was greater than 173 µM and the “HC 10% (µg/ml)” value is greater than 100 µg/mL. The IC50 in the data set on KP4 cells amounted to 20.7 µM. It took 23.2 µM to reach half-maximal inhibition in data set [2] (IC50).
As to `N=C(N)NC(=N)NCc1ccc(CCc2ccccc2)cc1` [2b, 4-(phenylethyl)benzylbiguanide], in the data set with red blood cells [1], the “HC 10% (µM)” value was greater than 225 µM and the “HC 10% (µg/ml)” value was greater than 100 µg/mL. Also, in the data set with KP4 cells, the half-maximal inhibitory concentration (IC50) came out at 17.4 µM. The same compound yielded an IC50 in data set [2] of 31.3 µM.
Regarding `N=C(N)NC(=N)NCc1ccc(CCc2ccccc2)cc1` [2c, 4-(phenylethyl)benzylbiguanide], in the data set with red blood cells [1], the “HC 10% (µM)” value was found to be 151 µM and the “HC 10% (µg/ml)” value is 50 µg/mL. Also, the concentration for half-maximal inhibition (IC50) with KP4 cells (Homo sapiens, KP-4, 72 h) came to 15.8 µM. In data set [2] (Homo sapiens, HPNE, 72 h), this compound displayed a 50% inhibitory concentration (IC50) of 37.4 µM.
As to `N=C(N)NC(=N)Nc1ccc(C#Cc2ccccc2)cc1` [3a, 4-(phenylethynylphenyl)biguanidium], the “HC 10% (µM)” value in the data set on red blood cells [1] is greater than 179 µM. Moreover, the “HC 10% (µg/ml)” value in the data set on red blood cells [1] was greater than 100 µg/mL. The values for the IC50 (in the data set with KP4 cells; in data set [2]) were 17 µM and 20.2 µM, respectively.
`N=C(N)NC(=N)Nc1ccc(C#Cc2ccccc2)cc1` [3b, 4-(phenylethynylphenyl)biguanidium]: in the data set on red blood cells [1], the “HC 10% (µM)” value was greater than 234 µM and the “HC 10% (µg/ml)” value was greater than 100 µg/mL. In the data set on KP4 cells, the half-maximal inhibitory concentration (IC50) worked out at 58.3 µM. Also, the 50% inhibitory concentration (IC50) in data set [2] turned out to be 60.4 µM.
As to `N=C(N)NC(=N)Nc1ccc(C#Cc2ccccc2)cc1` [3c, 4-(phenylethynylphenyl)biguanidium], the “HC 10% (µM)” value in the data set with red blood cells [1] is greater than 319 µM. For the same compound, the “HC 10% (µg/ml)” value with red blood cells [1] was greater than 100 µg/mL. Also, the 50% inhibitory concentration (IC50) is 38.9 µM in the data set on KP4 cells and 52.6 µM in data set [2].
`N=C(N)NC(=N)Nc1ccc(CCc2ccccc2)cc1` [4a, 4-(phenylethylphenyl)biguanidium]: in the data set on red blood cells [1], the “HC 10% (µM)” value is on record as greater than 178 µM and the “HC 10% (µg/ml)” value is greater than 100 µg/mL. Further, in the data set on KP4 cells (Homo sapiens, KP-4, 72 h), the IC50 is 12.2 µM. Further, in data set [2] (Homo sapiens, HPNE, 72 h), the IC50 was found to be 32.6 µM.
`N=C(N)NC(=N)Nc1ccc(CCc2ccccc2)cc1` [4b, 4-(phenylethylphenyl)biguanidium]: in the data set on red blood cells [1], the “HC 10% (µM)” value is recorded as greater than 232 µM and the “HC 10% (µg/ml)” value is greater than 100 µg/mL. Moreover, in the data set with KP4 cells, the half-inhibitory concentration (IC50) stood at 13.9 µM. In data set [2], this compound gave an IC50 of 47.4 µM.
Turning to `N=C(N)NC(=N)Nc1ccc(CCc2ccccc2)cc1` [4c, 4-(phenylethylphenyl)biguanidium], in the data set with red blood cells [1], the “HC 10% (µM)” value is greater than 315 µM and the “HC 10% (µg/ml)” value is greater than 100 µg/mL. Moreover, in the data set on KP4 cells, the half-maximal inhibitory concentration (IC50) was found to be 16.9 µM.
On to `C(#Cc1ccc(Cn2c[n+](Cc3ccc(C#Cc4ccccc4)cc3)c3ccccc32)cc1)c1ccccc1` [A.1], for which, in the data set on red blood cells [3], the “HC50 (concentration that kills 50% of red blood cells)” value was 0.15 mM.
For `C(#Cc1ccc(Cn2c[n+](Cc3ccccc3)c3ccccc32)cc1)c1ccccc1` [A.2], the “HC50 (concentration that kills 50% of red blood cells)” value in the data set with red blood cells [3] is recorded as 1 mM.
As to `C[n+]1cn(Cc2ccc(C#Cc3ccccc3)cc2)c2ccccc21` [A.3], the “HC50 (concentration that kills 50% of red blood cells)” value in the data set on red blood cells [3] was 150 mM.
